Assay results as given in ChEMBL document CHEMBL1141680, “Identification of ring-fused pyrazolo pyridin-2-ones as novel poly(ADP-ribose)polymerase-1 inhibitors” (Bioorg Med Chem Lett, 2008).

Experiments:
[1] = biological target: Poly [ADP-ribose] polymerase 1 (Homo sapiens, UniProt P09874)
Description: Inhibition of PARP1 in human HeLa cells by fluid scintillation counting using [adenylated-32P]NAD as substrate

HCT-116 = test: Cytotoxicity against human HCT116 cells; assay type: cell-based
PARP1 = test: Therapeutic index, ratio of LD40 for human HCT116 cells to drug concentration that reduced half the amount of streptozotocin required to inhibit PARP1-mediated 90% human HCT116 cell growth; assay type: cell-based, HCT-116; conditions: read-out: TI

Poly [ADP-ribose] polymerase 1, sequence (P09874 whole entry): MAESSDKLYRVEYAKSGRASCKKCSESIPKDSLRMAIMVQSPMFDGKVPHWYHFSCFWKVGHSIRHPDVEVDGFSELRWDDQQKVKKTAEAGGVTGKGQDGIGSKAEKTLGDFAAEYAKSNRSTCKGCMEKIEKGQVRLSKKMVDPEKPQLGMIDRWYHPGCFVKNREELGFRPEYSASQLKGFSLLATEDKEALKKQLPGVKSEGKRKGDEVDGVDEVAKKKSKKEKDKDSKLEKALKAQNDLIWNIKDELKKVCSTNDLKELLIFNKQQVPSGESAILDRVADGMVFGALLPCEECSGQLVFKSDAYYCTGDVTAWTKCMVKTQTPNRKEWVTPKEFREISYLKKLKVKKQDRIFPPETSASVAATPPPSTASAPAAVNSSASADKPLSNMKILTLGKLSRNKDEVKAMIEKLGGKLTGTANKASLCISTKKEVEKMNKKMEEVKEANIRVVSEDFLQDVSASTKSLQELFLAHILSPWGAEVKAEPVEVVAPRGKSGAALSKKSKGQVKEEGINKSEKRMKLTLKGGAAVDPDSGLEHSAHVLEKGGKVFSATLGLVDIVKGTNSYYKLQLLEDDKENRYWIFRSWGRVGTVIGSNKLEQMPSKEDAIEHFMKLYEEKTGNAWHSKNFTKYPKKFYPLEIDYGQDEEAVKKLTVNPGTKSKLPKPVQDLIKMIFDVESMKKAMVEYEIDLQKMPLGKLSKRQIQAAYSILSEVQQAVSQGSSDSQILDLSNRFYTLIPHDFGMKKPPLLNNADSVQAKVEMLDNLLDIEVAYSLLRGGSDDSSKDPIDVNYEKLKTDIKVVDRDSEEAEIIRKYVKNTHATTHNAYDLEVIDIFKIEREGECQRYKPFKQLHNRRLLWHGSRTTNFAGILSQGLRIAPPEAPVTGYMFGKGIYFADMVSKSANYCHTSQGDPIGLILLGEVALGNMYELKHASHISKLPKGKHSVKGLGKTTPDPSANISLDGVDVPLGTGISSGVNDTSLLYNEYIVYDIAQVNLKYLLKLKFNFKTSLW

## COc1ccc(-c2nc3c(C(N)=O)cccc3[nH]2)cc1
[1]
  IC50: 0.06 µM

## Cn1nc(-c2cccs2)c2c3c(c(=O)[nH]c21)CCC3
HCT-116
  LD40: 11.2 µM
PARP1
  selectivity ratio: 3.6
[1]
  IC50: 0.149 µM

## O=c1[nH]c2c(c(-c3ccccc3)nn2-c2ccccc2)c2c1CCC2
[1]
  IC50: > 10 µM

## Cc1nn(C)c2nc3c(c(O)c12)CSC3
[1]
  IC50: > 10 µM

## Cc1nn(C)c2[nH]c3c(c(=O)c12)CCCC3
[1]
  IC50: > 10 µM

## Cc1cccc2c1CCNC2=O
[1]
  IC50: 0.16 µM

## Cn1nc(-c2ccccc2)c2c1NC(=O)C1CCCCC21 (configuration not stated)
HCT-116
  LD40: 7.5 µM
PARP1
  selectivity ratio: 19.7
[1]
  IC50: 0.0073 µM

## Cn1nc(-c2cccs2)c2c3c(c(=O)[nH]c21)CSC3
[1]
  IC50: 0.428 µM

## Cc1nn(-c2ccccc2)c2[nH]c(=O)c3c(c12)CCCC3
[1]
  IC50: 9.72 µM

## Cn1nc(-c2cccs2)c2c3c(c(=O)[nH]c21)CCCC3
HCT-116
  LD40: > 12.5 µM
PARP1
  selectivity ratio: > 32.9
[1]
  IC50: 0.0069 µM

## Cc1nn(-c2ccccc2)c2[nH]c(=O)c3c(c12)CCC3
[1]
  IC50: > 10 µM

## Cn1nc(-c2ccccc2)c2c3c(c(=O)[nH]c21)CCC3
HCT-116
  LD40: 42.5 µM
PARP1
  selectivity ratio: 1.6
[1]
  IC50: 0.106 µM

## Cc1nn(C)c2[nH]c(=O)c3c(c12)CCCC3
HCT-116
  LD40: > 12.5 µM
PARP1
  selectivity ratio: > 6.6
[1]
  IC50: 0.0022 µM

## Cc1nn(C)c2[nH]c3c(c(=O)c12)CCC3
[1]
  IC50: 7 µM

## Cc1nn(C(C)(C)C)c2[nH]c(=O)c3c(c12)CSC3
[1]
  IC50: 1.84 µM

## Cc1nn(-c2ccccc2)c2[nH]c(=O)c3c(c12)CSC3
[1]
  IC50: > 10 µM

## O=c1[nH]c2c(c(-c3ccccc3)nn2-c2ccccc2)c2c1CCCC2
[1]
  IC50: > 10 µM

## Cn1nc(-c2ccccc2)c2c3c(c(=O)[nH]c21)CSC3
HCT-116
  LD40: 21.2 µM
PARP1
  selectivity ratio: 1.4
[1]
  IC50: 0.11 µM

## Cc1nn(C)c2[nH]c(=O)c3c(c12)CSC3
HCT-116
  LD40: > 50 µM
PARP1
  selectivity ratio: > 1.8
[1]
  IC50: 0.0927 µM

## Cc1nn(C)c2[nH]c(=O)c3c(c12)CCC3
HCT-116
  LD40: 27.2 µM
PARP1
  selectivity ratio: 1.4
[1]
  IC50: 0.0298 µM

## Cc1nn(C(C)(C)C)c2[nH]c(=O)c3c(c12)CCC3
[1]
  IC50: 0.519 µM
